Assay results taken from ChEMBL document CHEMBL5620394, “Synthesis of new antiproliferative 1,3,4-substituted-pyrrolo[3,2-c]quinoline derivatives, biological and in silico insights” (Eur J Med Chem, 2023).

Columns and labels:
Assay type in all cases: functional
Conditions in all cases: read-out: Activity
[1] = test system: SR; test: Antiproliferative activity against human SR cells assessed as cell growth at 10 uM incubated for 48 hrs by sulforhodamine B assay relative to control
[2] = test system: MDA-MB-231; test: Antiproliferative activity against human MDA-MB-231 cells assessed as cell growth at 10 uM incubated for 48 hrs by sulforhodamine B assay relative to control
[3] = test system: 786-0; test: Antiproliferative activity against human 786-0 cells assessed as cell growth at 10 uM incubated for 48 hrs by sulforhodamine B assay relative to control
[4] = test system: UACC-257; test: Antiproliferative activity against human UACC-257 cells assessed as cell growth at 10 uM incubated for 48 hrs by sulforhodamine B assay relative to control
[5] = test system: UO-31; test: Antiproliferative activity against human UO-31 cells assessed as cell growth at 10 uM incubated for 48 hrs by sulforhodamine B assay relative to control
[6] = test system: HT-29; test: Antiproliferative activity against human HT-29 cells assessed as cell growth at 10 uM incubated for 48 hrs by sulforhodamine B assay relative to control
[7] = test system: CAKI-1; test: Antiproliferative activity against human CAKI-1 cells assessed as cell growth at 10 uM incubated for 48 hrs by sulforhodamine B assay relative to control
[8] = test system: CCRF-CEM; test: Antiproliferative activity against human CCRF-CEM cells assessed as cell growth at 10 uM incubated for 48 hrs by sulforhodamine B assay relative to control
[9] = test system: NCI-H226; test: Antiproliferative activity against human NCI-H226 cells assessed as cell growth at 10 uM incubated for 48 hrs by sulforhodamine B assay relative to control
[10] = test system: T47D; test: Antiproliferative activity against human T47D cells assessed as cell growth at 10 uM incubated for 48 hrs by sulforhodamine B assay relative to control
[11] = test system: MOLT-4; test: Antiproliferative activity against human MOLT-4 cells assessed as cell growth at 10 uM incubated for 48 hrs by sulforhodamine B assay relative to control
[12] = test system: RPMI-8226; test: Antiproliferative activity against human RPMI-8226 cells assessed as cell growth at 10 uM incubated for 48 hrs by sulforhodamine B assay relative to control
[13] = test system: SNB-75; test: Antiproliferative activity against human SNB-75 cells assessed as cell growth at 10 uM incubated for 48 hrs by sulforhodamine B assay relative to control
[14] = test system: K562; test: Antiproliferative activity against human K562 cells assessed as cell growth at 10 uM incubated for 48 hrs by sulforhodamine B assay relative to control
[15] = test system: UACC-62; test: Antiproliferative activity against human UACC-62 cells assessed as cell growth at 10 uM incubated for 48 hrs by sulforhodamine B assay relative to control
[16] = test system: PC-3; test: Antiproliferative activity against human PC-3 cells assessed as cell growth at 10 uM incubated for 48 hrs by sulforhodamine B assay relative to control
[17] = test system: NCI-H522; test: Antiproliferative activity against human NCI-H522 cells assessed as cell growth at 10 uM incubated for 48 hrs by sulforhodamine B assay relative to control
[18] = test system: MCF7; test: Antiproliferative activity against human MCF7 cells assessed as cell growth at 10 uM incubated for 48 hrs by sulforhodamine B assay relative to control
[19] = test system: HL-60; test: Antiproliferative activity against human HL-60 cells assessed as cell growth at 10 uM incubated for 48 hrs by sulforhodamine B assay relative to control
[20] = test system: IGROV-1; test: Antiproliferative activity against human IGROV-1 cells assessed as cell growth at 10 uM incubated for 48 hrs by sulforhodamine B assay relative to control
[21] = test system: SK-OV-3; test: Antiproliferative activity against human SK-OV-3 cells assessed as cell growth at 10 uM incubated for 48 hrs by sulforhodamine B assay relative to control
[22] = test system: MDA-MB-468; test: Antiproliferative activity against human MDA-MB-468 cells assessed as cell growth at 10 uM incubated for 48 hrs by sulforhodamine B assay relative to control
[23] = test system: KM12; test: Antiproliferative activity against human KM12 cells assessed as cell growth at 10 uM incubated for 48 hrs by sulforhodamine B assay relative to control
[24] = test system: HOP-62; test: Antiproliferative activity against human HOP-62 cells assessed as cell growth at 10 uM incubated for 48 hrs by sulforhodamine B assay relative to control
[25] = test system: LOX IMVI; test: Antiproliferative activity against human LOX IMVI cells assessed as cell growth at 10 uM incubated for 48 hrs by sulforhodamine B assay relative to control
[26] = test system: A549; test: Antiproliferative activity against human A549 cells assessed as cell growth at 10 uM incubated for 48 hrs by sulforhodamine B assay relative to control
[27] = test system: MDA-MB-435; test: Antiproliferative activity against human MDA-MB-435 cells assessed as cell growth at 10 uM incubated for 48 hrs by sulforhodamine B assay relative to control
[28] = test system: EKVX; test: Antiproliferative activity against human EKVX cells assessed as cell growth at 10 uM incubated for 48 hrs by sulforhodamine B assay relative to control
[29] = test system: HCT-116; test: Antiproliferative activity against human HCT-116 cells assessed as cell growth at 10 uM incubated for 48 hrs by sulforhodamine B assay relative to control
[30] = test system: ACHN; test: Antiproliferative activity against human ACHN cells assessed as cell growth at 10 uM incubated for 48 hrs by sulforhodamine B assay relative to control
[31] = test system: HCT-15; test: Antiproliferative activity against human HCT-15 cells assessed as cell growth at 10 uM incubated for 48 hrs by sulforhodamine B assay relative to control
[32] = test system: SF-295; test: Antiproliferative activity against human SF-295 cells assessed as cell growth at 10 uM incubated for 48 hrs by sulforhodamine B assay relative to control

SMILES | growth at 10 µM [1] | growth at 10 µM [2] | growth at 10 µM [4] | growth at 10 µM [5] | growth at 10 µM [7] | growth at 10 µM [8] | growth at 10 µM [9] | growth at 10 µM [10] | growth at 10 µM [11] | growth at 10 µM [12] | growth at 10 µM [13] | growth at 10 µM [14] | growth at 10 µM [16] | growth at 10 µM [17] | growth at 10 µM [18] | growth at 10 µM [20] | growth at 10 µM [21] | growth at 10 µM [22] | growth at 10 µM [23] | growth at 10 µM [24] | also measured
CCOC(=O)c1c(C)n(-c2ccccc2)c2c1c(-c1ccccc1)nc1ccccc12 | 89.9% | 73.4% | 94.7% | 80.8% | 91% | 88.8% | 87% | 95.9% | 84.3% | 88.1% | 80.4% | 86.4% | 74.5% | 81.2% | 85.1% | – | – | – | – | – | growth at 10 µM [3]: 86%; growth at 10 µM [6]: 100%; growth at 10 µM [15]: 74.7%; growth at 10 µM [19]: 89.1%
CC(=O)c1c(C)[nH]c2c1c(-c1cc3c(cc1Br)OCO3)nc1ccccc12 | 74% | 88.2% | 105% | 61.5% | 95.6% | 92% | 99.7% | 91.4% | 83.8% | 96.9% | 84% | 85.2% | 85.5% | 77% | 70.2% | 82.5% | 96.7% | 109% | 91% | 91.5% | growth at 10 µM [25]: 89.3%; growth at 10 µM [26]: 88.7%; growth at 10 µM [27]: 95.6%; growth at 10 µM [28]: 89.6%; growth at 10 µM [29]: 98.9%; growth at 10 µM [30]: 93%; growth at 10 µM [31]: 97.2%; growth at 10 µM [32]: 94.2%
CC(=O)c1c(C)n(CCCCl)c2c1c(-c1ccc3c(c1)OCO3)nc1ccccc12 | 53.1% | 95.8% | 102% | 85.4% | 86.7% | 77.1% | 115% | 71.5% | 67.3% | 83.3% | 69.4% | 71% | 76.2% | 63.7% | 83.2% | 93.9% | 97.2% | 101% | 87.3% | 96.7% | growth at 10 µM [25]: 90%; growth at 10 µM [26]: 81.7%; growth at 10 µM [27]: 93.6%; growth at 10 µM [28]: 86%; growth at 10 µM [29]: 93.6%; growth at 10 µM [30]: 84.4%; growth at 10 µM [31]: 87%; growth at 10 µM [32]: 76.7%
